Consider nine compounds from patent US20220387344A1, “COMPOSITIONS AND METHODS FOR INHIBITING COLLAGEN LOSS” (LYCORED LTD., priority 2019, published 2022).

The nature of data set [1]: Plasma carotenoids after Lumenato capsules (bioavailability). The class given is in vivo. As to conditions: delivered within Lumenato capsules, plasma at 1, 2, 3 and 4 weeks post administration. The text has this: The inventors have examined the bioavailability of carotenoids delivered within Lumenato capsules. The following carotenoids were quantified in the plasma at 1 week, 2 weeks, 3 weeks, and 4 weeks post administration. Phytoene, phytofluene and zeta-carotene which are the main carotenoids in Lumenato (the golden tomato extract) were absorbed well (FIG. 15).

In data set [2] the test system is human neutrophils. As to the kind of experiment: MMP-9 secretion from stimulated human neutrophils (ELISA). The class given is cell-based. As to conditions: agonist alone. The procedure: (§1) Blood was drawn from healthy volunteers. Neutrophils, at 95% purity were obtained by Ficoll-Hypaque centrifugation, dextran sedimentation, and hypotonic lysis of erythrocytes within 1 hour after blood was drawn. Cells were counted and their viability was determined by trypan blue exclusion. Human MMP-9 concentrations in cell culture supernatants were quantified by ELISA kits (R&D systems Minneapolis, Minn., USA). […] Neutrophils were activated by 100 ng/ml TNFα or 100 ng/ml IL8 that are released from the skin cells during exposure to UV and activated. In addition, neutrophils were activated with […] for comparison.

Data set [3] deals with human neutrophils. Nature of the data set: MPO secretion from stimulated human neutrophils. The class given is cell-based. Particulars: agonist alone. As for the experimental part: as §1, with “100 μl of 37° C. O-dianisidine hydrochloride solution (1 mg O-dianisidine, 10 ml phosphate buffer pH 6.0+0.0015% H2O2) were added to 100 μl supernatant” for “Human MMP-9 concentrations”, “a 96-well plate immediately before the optical density was followed” for “cell culture supernatants were quantified”, “the change of absorbance at 450 nm at 2 minute intervals on a Thermomax Microplate Reader (Molecular Devices, Melno Park, Calif.).” for “ELISA kits (R&D systems Minneapolis, Minn., USA).”

Data set [4] deals with human neutrophils. As to the kind of experiment: MPO activity of TNFα-activated neutrophils incubated overnight with single or combined phytonutrients. As to conditions: sole addition. The class given is cell-based. The procedure:
100 μl of 37° C. O-dianisidine hydrochloride solution (1 mg O-dianisidine, 10 ml phosphate buffer pH 6.0+0.0015% H2O2) were added to 100 μl supernatant in a 96-well plate immediately before the optical density was followed by the change of absorbance at 450 nm at 2 minute intervals on a Thermomax Microplate Reader (Molecular Devices, Melno Park, Calif.).
Tocopherol and phytosterol were added to 5×10^5 human neutrophils 20 min before addition of 100 ng/ml TNFα and maintained overnight at 37° C. in a humidified atmosphere containing 5% CO2. MPO activity was measured in the supernatant of the cultured neutrophils.
Zeta carotene, phytoene, tocopherol, phytosterol, or combinations thereof, were added to 5×10^5 human neutrophils 20 min before addition of 100 ng/ml TNFα and maintained overnight at 37° C. in humidified atmosphere containing 5% CO2. MPO activity was measured as escribed above.
The inventors examined the effect of multiple phytonutrients on MPO activity in stimulated neutrophils. The sole addition of tocopherol or phytosterol had no effect on the release and activity of MPO from neutrophils activated with TNFα (FIGS. 13A-13B).
The inventors also examined the effect of adding zeta carotene with either phytoene, a tocopherol, or a phytosterol, on MPO activity. […]

The subject of a further data set is NHDF cells. Nature of the data set: Collagen 1a1 secretion by NHDF cells under H2O2 oxidative stress (ELISA). The class given is cell-based, human. As to conditions: 50 μM H2O2. The procedure: Cells were incubated with Lumenato for 24 h and then hydrogen peroxide (H2O2) was added, and cells were incubated for additional 24 h to induce oxidative stress. The incubation medium was collected and the levels of collagen 1 a 1 protein secretion to the medium were analyzed using a specific ELISA detection kit.

Data set [5] has as its system KERTr human keratinocytes. Nature of the data set: Viability of KERTr keratinocytes under H2O2 oxidative stress (XTT). The class given is cell-based. Particulars: H2O2 alone. The procedure:
(§2) The inventors used hydrogen peroxide, H2O2, to induce oxidative stress in KERTr human keratinocytes, and analyzed the effects on cell number (cell death) and the secretion of MMP1. Cells viability was determined using the XTT cell proliferation kit, and MMP1 levels were measured by ELISA.

Data set [6] relates to KERTr human keratinocytes. Nature of the data set: MMP1 secretion by KERTr keratinocytes under H2O2 oxidative stress (ELISA). The class given is cell-based. Particulars: H2O2 alone. As for the experimental part: as §2
[7] abbreviates: 2 hr of activation, TNFα or IL8 100 ng/ml.

Turning to `CC(C)=CCC/C(C)=C/CC/C(C)=C/CC/C(C)=C/C=C/C=C(\C)CC/C=C(\C)CC/C=C(\C)CCC=C(C)C` [phytoene], in data set [1], the “absorption (plasma concentration)” value is on record as “absorbed well”.

Take `CC(C)=CCC/C(C)=C/CC/C(C)=C/C=C/C(C)=C/C=C/C=C(\C)CC/C=C(\C)CC/C=C(\C)CCC=C(C)C` [phytofluene]: the “absorption (plasma concentration)” value in data set [1] is reported as “absorbed well”. For the compound “formyl-Methionine-Leucine-Phenylalanine [fMLP]”, the “release of MMP-9” value in the data set on human neutrophils [2] (30 min of activation) was determined as 10.41 ± 0.4 ng/mL; in the data set on human neutrophils [2] (4 hr of activation), 13.45 ± 0.3 ng/mL. Besides, in the data set on human neutrophils [3] (30 min of activation), the “release of MPO” value came out at 0.54 ± 0.004 ng/mL.

As for `CC(C)=CCC/C(C)=C/CC\C(C)=C/C=C/C(C)=C/C=C/C=C(C)/C=C/C=C(/C)CC/C=C(\C)CCC=C(C)C` [zeta carotene], the “absorption (plasma concentration)” value is listed as “absorbed extremely well” in data set [1] (listed as Zeta carotene) and “absorbed well” in data set [1] (listed as zeta-carotene).

phytosterol: the “effect on release and activity of MPO” value in the data set with human neutrophils [4] is listed as “no effect”.

Regarding tocopherol, the “effect on release and activity of MPO” value with human neutrophils [4] is given as “no effect”. On to “IL8: interleukin 8, agonist used to stimulate neutrophils”, for which the “release of MMP-9” value with human neutrophils [2] (setting [7]) is 9.12 ± 0.2 ng/mL; in the data set on human neutrophils [2] (4 hr of activation), 17.86 ± 0.4 ng/mL. The “release of MPO” value in the data set on human neutrophils [3] (4 h of activation) turned out to be 0.4 ± 0.08 ng/mL. `OO` [H2O2, hydrogen peroxide]: the “reduction in collagen 1a1 secretion” value in the data set on NHDF cells is recorded as “about 10 fold”. Besides, the “cell number (cell death)” value in data set [5] is listed as “dose dependent cell death”. Also, the “secretion of MMP1” value in data set [6] is on record as “increased secretion of MMP1”.

Turning to TNFα, the “release of MMP-9” value in the data set with human neutrophils [2] (setting [7]) was 16.52 ± 0.5 ng/mL. The “release of MPO” value in the data set with human neutrophils [3] (4 h of activation) is 0.28 ± 0.001 ng/mL.
